Reference: patent publication US20230114241A1, “METHODS OF TREATING EPILEPSY USING THE SAME” (Trevena, Inc., priority 2019, published 2023)

Tests used:
[1] = biological target: T1, human sphingosine-1-phosphate receptor 1 (S1P1) (Homo sapiens, UniProt P21453); assay: Inhibition of cAMP production (HTRF cAMP HiRange), S1P1 CHO-K1 cells; format: cell-based; conditions: for Emax: CHO-K1, efficacy normalized to maximum efficacy of fingolimod, read-out: hS1P1 CAMP SPAN; for EC50: read-out: hS1P1 CAMP pEC50 (converted)
Summary of the method: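 Intracellular cAMP changes read by TR-FRET (HTRF HiRange, 1 h room temperature) after 30 min compound exposure at 37 °C. Cells: overnight-plated CHO-K1 stably expressing tagged human S1P1 with EA-β-arrestin2. Responses normalized to fingolimod.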
Target sequence in this assay (P21453 whole entry): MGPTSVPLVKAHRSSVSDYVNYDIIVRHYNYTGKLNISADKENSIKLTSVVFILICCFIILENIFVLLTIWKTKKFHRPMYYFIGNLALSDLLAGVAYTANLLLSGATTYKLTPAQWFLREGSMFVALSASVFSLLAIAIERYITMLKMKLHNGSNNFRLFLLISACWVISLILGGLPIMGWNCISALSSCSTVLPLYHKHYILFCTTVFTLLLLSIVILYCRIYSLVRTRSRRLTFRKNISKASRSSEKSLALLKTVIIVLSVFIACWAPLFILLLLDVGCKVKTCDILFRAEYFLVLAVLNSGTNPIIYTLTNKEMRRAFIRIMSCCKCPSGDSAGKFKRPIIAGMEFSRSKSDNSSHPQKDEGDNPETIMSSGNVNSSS

[2] = biological target: T1, human sphingosine-1-phosphate receptor 1 (S1P1); assay: β-Arrestin2 recruitment assay (PathHunter), S1P1 CHO-K1 cells; format: cell-based; conditions: for Emax: efficacy normalized to maximum efficacy of fingolimod, read-out: hS1P1 B-arrestin2 SPAN; for EC50: β-arrestin2 recruitment, read-out: hS1P1 B-arrestin2 pEC50 (converted)
Method: Stable clonal Chinese hamster ovary K1 (CHO-K1) cells co-expressing EA-β-arrestin2 and the human sphingosine-1-phosphate receptor 1 (NM_001400, S1P1) with a C-terminal Prolink™ tag were purchased from DiscoverX corporation (Cat #: 93-0207C2).
Cell lines were cultured in AssayComplete™ Media 6 (DiscoverX Corporation, Cat #: 920018GF2) at 37° C. and 5% CO2 in a humidified CO2 and temperature-controlled incubator. To begin assay plating, cells were washed with Dulbecco's phosphate buffered saline (CellGro, Cat #: 21-031-CV) and lifted from the culturing flask by incubation (37° C., 5 min) with CellStripper (Cellgro, Cat #: 25-056-CI). […] Plated cells were incubated overnight at 37° C. and 5% CO2 in a humidified CO2 and temperature-controlled incubator.
Agonist-promoted β-arrestin2 recruitment to the sphingosine-1-phosphate 1 receptor was determined using the β-arrestin PathHunter® Detection kit (DiscoverX Corporation, Cat #: 93-0001). […] In cells that stably express these fusion proteins, stimulation with a cognate agonist results in the interaction of β-arrestin2 and the Prolink™-tagged GPCR. This allows the complementation of the two β-galactosidase fragments and results in the formation of a functional enzyme with β-galactosidase activity. […] Following a 60 minute incubation at 37° C. and 5% CO2 in a humidified CO2 and temperature-controlled incubator, the components of the β-arrestin PathHunter® Detection kit were added as per the manufacturer's instructions. After an hour incubation at room temperature, plates were analyzed by a BMG PheraStar microplate reader.
These values are normalized to fingolimod, a known agonist of the sphingosine-1-phosphate 1 receptor.
Target sequence in this assay (P21453 whole entry): as above
Target sequence in this assay (P32121 whole entry partner): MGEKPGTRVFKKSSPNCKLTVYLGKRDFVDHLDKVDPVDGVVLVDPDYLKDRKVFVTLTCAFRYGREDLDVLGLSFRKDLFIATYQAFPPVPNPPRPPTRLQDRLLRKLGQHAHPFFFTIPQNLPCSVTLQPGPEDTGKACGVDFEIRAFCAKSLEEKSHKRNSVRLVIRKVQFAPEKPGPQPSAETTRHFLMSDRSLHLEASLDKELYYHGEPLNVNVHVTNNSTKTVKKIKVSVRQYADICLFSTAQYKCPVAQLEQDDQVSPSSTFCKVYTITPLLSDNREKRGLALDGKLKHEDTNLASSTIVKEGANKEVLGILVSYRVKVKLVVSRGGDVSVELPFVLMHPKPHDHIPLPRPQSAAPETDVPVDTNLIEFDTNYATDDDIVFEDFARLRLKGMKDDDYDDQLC

[3] = inhibition of cAMP production, S1P1
[4] = inhibition of cAMP production, potency
[5] = CHO-K1, β-arrestin2 recruitment

| Structure (SMILES) | Emax [1] [%] | EC50 [1, 3] [µM] | Emax ([2]; CHO-K1) [%] | EC50 ([2]; S1P1) [µM] | Emax ([1]; inhibition of cAMP production) [%] | EC50 [1, 4] [µM] | Emax [2, 5] [%] | EC50 ([2]; potency) [µM] |
| --- | --- | --- | --- | --- | --- | --- | --- | --- |
| Cn1ccnc1-c1noc(-c2ccc3c(c2)nnn3CC(C)(C)O)n1 [Compound 567, 2-methyl-1-(5-[3-(1-methyl-1H-imidazol-2-yl)-1,2,4-oxadiazol-5-yl]-1H-1,2,3-benzotriazol-1-yl}propan-2-ol] | > 75 | > 0.316 | < 75 | > 10 |  |  |  |  |
| C=CCNc1ccc(-c2nc(-c3ccc4[nH]c(=O)oc4c3)no2)cc1C#N [Compound 189, 2-(allylamino)-5-(3-(2-oxo-2,3-dihydro-benzo[d]oxazol-6-yl)-1,2,4-oxadiazol-5-yl)benzonitrile] |  |  |  |  | > 75 | < 0.316 | > 75 | < 10 |
| CCC1(CC)CC(=O)c2cc(-c3nc(-c4ccc5c(c4)CCC(=O)N5)no3)ccc2O1 [Compound 415, 6-(5-(2,2-diethyl-4-oxochroman-6-yl)-1,2,4-oxadiazol-3-yl)-3,4-dihydroquinolin-2(1H)-one] | < 75 | < 0.316 | > 75 | > 10 |  |  |  |  |
| CC(C)n1nnc2cc(-c3noc(-c4ncccc4O)n3)ccc21 [Compound 602, 2-{3-[1-(propan-2-yl)-1H-1,2,3-benzo-triazol-5-yl]-1,2,4-oxadiazol-5-yl}pyridin-3-ol] | < 75 | > 0.316 | > 75 | > 10 |  |  |  |  |
| COc1ccccc1-c1cnc(-c2ccc3c(c2)nnn3C(C)C)s1 [Compound 184, 2-(1-isopropyl-1H-benzo[d][1,2,3]triazol-5-yl)-5-(2-methoxy-phenyl)thiazole] |  |  |  |  | > 75 | > 0.316 | < 75 | > 10 |
| FC(F)(F)c1cccc(-c2nc(-c3ccc4c(c3)nnn4C3CCCC3)no2)c1 [Compound 12, 3-(1-cyclopentyl-1H-benzo[d][1,2,3]triazol-5-yl)-5-(3-(trifluoro-methyl)phenyl)-1,2,4-oxadiazole] |  |  |  |  | < 75 | > 0.316 | < 75 | > 10 |
| CC(C)Nc1ccc(-c2nnc(-c3cccc4[nH]cnc34)o2)cc1C#N [Compound 585, 5-[5-(1H-1,3-benzo-diazol-4-yl)-1,3,4-oxadiazol-2-yl]-2-[(propan-2-yl)amino]benzonitrile] | > 75 | < 0.316 | > 75 | < 10 |  |  |  |  |
| O=C1CNc2ccc(-c3nc(-c4cccnc4)no3)cc2N1 [Compound 629, 7-[3-(pyridin-3-yl)-1,2,4-oxadiazol-5-yl]-1,2,3,4-tetra-hydroquinoxalin-2-one] | > 75 | > 0.316 | < 75 | > 10 |  |  |  |  |
| CCC1(CC)CC(=O)c2cc(-c3nc(-c4ccc(C)s4)no3)ccc2O1 [Compound 34, 2,2-diethyl-6-(3-(5-methylthiophen-2-yl)-1,2,4-oxadiazol-5-yl)chroman-4-one] |  |  |  |  | > 75 | > 0.316 | < 75 | < 10 |
| Cc1ccncc1-c1noc(-c2ccc3ccsc3n2)n1 [Compound 376, 4-methyl-3-(5-{thieno[2,3-b]pyridin-6-yl}-1,2,4-oxadiazol-3-yl)pyridine] | < 75 | > 0.316 | < 75 | > 10 |  |  |  |  |
| C=CCn1nnc2cc(-c3nc(-c4ccccc4)no3)ccc21 [Compound 270, 5-(3-phenyl-1,2,4-oxadiazol-5-yl)-1-(prop-2-en-1-yl)-1H-1,2,3-benzotriazole] |  |  |  |  | < 75 | > 0.316 | < 75 | > 10 |
| CCC1(CC)CC(=O)c2cc(-c3nc(-c4cccnc4F)no3)ccc2O1 [Compound 547, 2,2-diethyl-6-(3-(2-fluoropyridin-3-yl)-1,2,4-oxadiazol-5-yl)chroman-4-one] | > 75 | < 0.316 | > 75 | < 10 |  |  |  |  |
| CCC1(CC)CC(=O)c2cc(-c3nc(-c4ccc5nonc5c4)no3)ccc2O1 [Compound 500, 6-[3-(2,1,3-benzoxadiazol-5-yl)-1,2,4-oxadiazol-5-yl]-2,2-diethyl-3,4-dihydro-2H-1-benzopyran-4-one] | < 75 | > 0.316 | < 75 | > 10 |  |  |  |  |
| CC(C)n1nnc2cc(-c3nc(-c4ccc5nonc5c4)no3)ccc21 [Compound 498, 5-{5-[1-(propan-2-yl)-1H-1,2,3-benzotriazol-5-yl]-1,2,4-oxadiazol-3-yl}-2,1,3-benzoxadiazole] | > 75 | < 0.316 | < 75 | > 10 |  |  |  |  |
| CCC1(CC)CC(=O)c2cc(-c3nc(-c4ccnc(C(N)=O)c4)no3)ccc2O1 [Compound 555, 4-(5-(2,2-diethyl-4-oxochroman-6-yl)-1,2,4-oxadiazol-3-yl)picolinamide] | < 75 | < 0.316 | < 75 | < 10 |  |  |  |  |
| CC(C)n1ccc2cc(-c3nc(-c4ccccc4F)cs3)cnc21 [Compound 402, 4-(2-fluorophenyl)-2-(1-isopropyl-1H-pyrrolo[2,3-b]pyridin-5-yl)thiazole] | < 75 | < 0.316 | < 75 | > 10 |  |  |  |  |
| CC(C)n1nnc2cc(-c3nc(-c4ccc(COc5ccccc5)cc4)no3)ccc21 [Compound 49, 5-{3-[4-(phenoxy-methyl)phenyl]-1,2,4-oxadiazol-5-yl}-1-(propan-2-yl)-1H-1,2,3-benzotriazole] |  |  |  |  | < 75 | > 0.316 | < 75 | > 10 |
| CCC1(CC)CC(=O)c2cc(-c3nc(-c4ccn[nH]4)no3)ccc2O1 [Compound 470, 6-(3-(1H-pyrazol-5-yl)-1,2,4-oxadiazol-5-yl)-2,2-diethyl-chroman-4-one] | > 75 | > 0.316 | > 75 | > 10 |  |  |  |  |
| COc1ccccc1-c1noc(-c2ccc3[nH]cnc3c2)n1 [Compound 369, 5-(1H-benzo[d]imidazol-5-yl)-3-(2-methoxy-phenyl)-1,2,4-oxadiazole] |  |  |  |  | < 75 | > 0.316 | < 75 | > 10 |
| CCC1(CC)CC(=O)c2cc(-c3nc(-c4ccc5c(c4)nnn5C(C)C)no3)ccc2O1 [Compound 305, 2,2-diethyl-6-(3-(1-isopropyl-1H-benzo[d][1,2,3]triazol-5-yl)-1,2,4-oxadiazol-5-yl)chroman-4-one] |  |  |  |  | > 75 | > 0.316 | < 75 | > 10 |
| CCC1(CC)CC(=O)c2cc(-c3nc(-c4cncc(F)c4)no3)ccc2O1 [Compound 551, 2,2-diethyl-6-(3-(5-fluoropyridin-3-yl)-1,2,4-oxadiazol-5-yl)chroman-4-one] | > 75 | < 0.316 | < 75 | < 10 |  |  |  |  |
| CC(C)(CO)n1nnc2cc(-c3noc(-c4ccccc4Cl)n3)ccc21 [Compound 618, 2-(5-(5-(2-chloro-phenyl)-1,2,4-oxadiazol-3-yl)-1H-benzo[d][1,2,3]triazol-1-yl)-2-methylpropan-1-ol] | < 75 | > 0.316 | < 75 | < 10 |  |  |  |  |
| CCC1(CC)CC(=O)c2cc(-c3nc(-c4ccnc(S(N)(=O)=O)c4)no3)ccc2O1 [Compound 616, 4-(5-(2,2-diethyl-4-oxochroman-6-yl)-1,2,4-oxadiazol-3-yl)pyridine-2-sulfonamide] | > 75 | < 0.316 | > 75 | < 10 |  |  |  |  |
